Measurements reported in US20130149740A1, “METHOD FOR THE PRODUCTION OF A POLYMERIZED PRODUCT” (Baxter Healthcare S.A., priority 2011, published 2013).

Experiments:
[1] = Viscosity and estimated capillary number of fibrin sealant components and mixes (squeezing regime); format: physicochemical; conditions: at 130 s^−1
Procedure: For these experiments, the experimental device and set-up was the same as described above. However, the liquid which is segmented by air is a mix. Raw products are fibrinogen (with methylene blue as coloring agent) and thrombin from TISSEEL kit which have to be mixed prior to segmentation. A Duploject system was applied which can be completed with a mixing device upstream the T-junction.
Under the “squeezing” regime of segmentation, the viscosities in the following table are calculated for different components, as well as the corresponding capillary numbers for mixes.

[2] = Doxorubicin living time (stability), concentration followed by fluorescence; format: physicochemical; conditions: in presence of fibrin
Text: DX has some fluorescence properties which can easily be used to measure its concentration in a solution. Indeed, excited with a 470 nm light, it emits a 593 light which intensity depends on DX concentration.

SMILES	Viscosity [1]	DX living time [2]
[Ca+2].[Cl-].[Cl-] [CaCl2 (40 μmol/ml), CaCl2]	1.3 cP	
COc1cccc2c1C(=O)c1c(O)c3c(c(O)c1C2=O)C[C@@](O)(C(=O)CO)C[C@@H]3O[C@H]1C[C@H](N)[C@H](O)[C@H](C)O1 [DX, Doxorubicin]		higher than 14 days
